Values joined by “and” are separate entries in the source; they are usually repeats but may differ in a detail not shown here. Identical values can stand only once. ± gives the expanded uncertainty stated by the source.
Assays:
[1] = 101.3 kPa, Liquid
[2] = mn = molality of the nth substance listed, in mol/kg; settings: 101.3 kPa, Liquid, m2 = 0

SMILES | mass density ([1]; 283.15 K) | mass density ([1]; 293.15 K) | mass density ([1]; 298.15 K) | mass density ([1]; 303.15 K) | mass density ([1]; 313.15 K) | mass density ([1]; 323.15 K) | mass density ([1]; 333.15 K) | mass density ([2]; 283.15 K) | mass density ([2]; 293.15 K) | mass density ([2]; 298.15 K) | mass density ([2]; 303.15 K) | mass density ([2]; 313.15 K) | mass density ([2]; 323.15 K) | mass density ([2]; 333.15 K)
CN(C)C=O [dimethylformamide] | 958.077 ± 0.58 kg/m3 and 958.163 ± 0.58 kg/m3 and 958.075 ± 0.58 kg/m3 | 948.565 ± 0.58 kg/m3 and 948.653 ± 0.59 kg/m3 | 943.797 ± 0.59 kg/m3 and 943.884 ± 0.59 kg/m3 | 939.017 ± 0.59 kg/m3 and 939.114 ± 0.59 kg/m3 | 929.529 ± 0.6 kg/m3 and 929.437 ± 0.6 kg/m3 | 919.807 ± 0.6 kg/m3 and 919.9 ± 0.61 kg/m3 | 910.12 ± 0.61 kg/m3 and 910.2 ± 0.61 kg/m3 |  |  |  |  |  |  | 
CN(C)C=O [dimethylformamide] + [Co+2].[O-][Cl+3]([O-])([O-])[O-].[O-][Cl+3]([O-])([O-])[O-] |  |  |  |  |  |  |  | 958.163 ± 0.58 kg/m3 | 948.653 ± 0.59 kg/m3 | 943.884 ± 0.59 kg/m3 | 939.114 ± 0.59 kg/m3 | 929.529 ± 0.6 kg/m3 | 919.9 ± 0.61 kg/m3 | 910.2 ± 0.61 kg/m3
CN(C)C=O [dimethylformamide] + [Cu+2].[O-][Cl+3]([O-])([O-])[O-].[O-][Cl+3]([O-])([O-])[O-] |  |  |  |  |  |  |  | 958.075 ± 0.58 kg/m3 | 948.565 ± 0.59 kg/m3 | 943.797 ± 0.59 kg/m3 | 939.017 ± 0.59 kg/m3 | 929.437 ± 0.6 kg/m3 | 919.807 ± 0.61 kg/m3 | 910.12 ± 0.61 kg/m3
CN(C)C=O [dimethylformamide] + [Mn+2].[O-][Cl+3]([O-])([O-])[O-].[O-][Cl+3]([O-])([O-])[O-] |  |  |  |  |  |  |  | 958.077 ± 0.58 kg/m3 | 948.565 ± 0.58 kg/m3 | 943.797 ± 0.59 kg/m3 | 939.017 ± 0.59 kg/m3 | 929.437 ± 0.6 kg/m3 | 919.807 ± 0.6 kg/m3 | 910.12 ± 0.61 kg/m3
CN(C)C=O [dimethylformamide] + [Ni+2].[O-][Cl+3]([O-])([O-])[O-].[O-][Cl+3]([O-])([O-])[O-] |  |  |  |  |  |  |  | 958.163 ± 0.58 kg/m3 | 948.653 ± 0.59 kg/m3 | 943.884 ± 0.59 kg/m3 | 939.114 ± 0.59 kg/m3 | 929.529 ± 0.6 kg/m3 | 919.9 ± 0.61 kg/m3 | 910.2 ± 0.61 kg/m3
CN(C)C=O [dimethylformamide] + [O-][Cl+3]([O-])([O-])[O-].[O-][Cl+3]([O-])([O-])[O-].[Zn+2] |  |  |  |  |  |  |  | 958.163 ± 0.58 kg/m3 | 948.653 ± 0.59 kg/m3 | 943.884 ± 0.59 kg/m3 | 939.114 ± 0.59 kg/m3 | 929.529 ± 0.6 kg/m3 | 919.9 ± 0.61 kg/m3 | 910.2 ± 0.61 kg/m3

Reference: the NIST ThermoML archive (doi:10.1021/je049721u)
